Non-standard residues stand in square brackets, D forms with d. Residues, ends and D or L forms follow the SMILES beside them. *: point of attachment. Npys = O=[N+]([O-])c1cccnc1S*; Leu(ol) = CC(C)C[C@H](N)CO; Mpa = O=C(O)CCS
Row | SMILES | melting point
1 | COc1cc(Br)c(C=O)cc1OCc1ccccc1 | 140 to 141 °C
2 | O=C(NCCc1ccccc1)c1ccc(S(=O)(=O)Nc2ccccc2C(=O)O)cc1 | 242 to 244 °C
3 | CCCc1cc2c(c3ccc(OC)cc13)OCc1cc(OC)ccc1-2 | 88 to 90 °C
4 | COc1cc(I)ccc1-c1ccccc1 | 57 °C
5 | CCc1nc(-c2cccc(C)c2)c(-c2ccnc(N)c2)s1 | 144 to 146 °C
6 | CCS(=O)(=O)N(Cc1ccccc1)Cc1ccc2[nH]cc(CCCN3CCN(c4ncncc4OC)CC3)c2c1 | 73 to 75 °C
7 | N#Cc1ccc(CCNC(=O)CC(=O)O)cc1 | 137 to 139 °C
8 | CCCOCCOc1ccc(COc2ccc3c(c2)C=C(C(=O)O)CCS3(=O)=O)cc1 | 244 to 250 °C
9 | COc1ccc(-c2cncc(OC3SCC(O)C(O)C3O)c2)c(C)c1 (configuration not stated) | 231 °C
10 | CCC(CC(=O)O)c1ccc(C(=O)OC)cc1 (configuration not stated) | 165 to 166 °C
11 | CCOC(=O)c1nnc(-c2cc3cc(Oc4ccc(S(C)(=O)=O)cc4)cc(OCc4ccccc4)c3[nH]2)s1 | 194 to 195 °C
12 | O=c1ccn2nc(-c3ccncc3)c(-c3ccc(F)cc3)c2[nH]1 | 298 to 299 °C
13 | CCCCNC(=O)N1CC(Oc2ccc(C(F)(F)F)cc2)C1 | 132 to 134 °C
14 | O=C(O)c1ccccc1-c1cc(-c2ccccc2)[nH]n1 | 204 to 206 °C
15 | Oc1nccc2cccnc12 | 236 to 239 °C
16 | O=C(CNC1CCCCC1)Nc1ccc(C(=O)N2CCCCc3ccccc32)cc1 | 139 to 142 °C
17 | CCOC(C(=O)O)c1ccc2c(c1)C(C)(C)CCC2(C)C (racemic) | 106 to 109 °C
18 | CC(C)C[C@@H](CO)NC(=O)[C@H](Cc1c[nH]cn1)NC(=O)[C@H](Cc1ccccc1)NC(=O)CCSSc1ncccc1[N+](=O)[O-] ([Mpa](Npys)FH[Leu(ol)]) | 109 to 112 °C
19 | COc1ccc(CCCc2cnc(N)nc2N)cc1 | 151 to 154 °C
20 | N#Cc1ccc(C#CCN2CCc3nc(N)sc3CC2)cc1 | 174 to 176 °C
21 | CCN(CC)CCSC1=C(C#N)C(c2ccccn2)(c2ccccn2)C(=O)N1 | 135 to 136 °C
22 | CON=Cc1ccc(N2C(=O)C(O)=C(C(=O)c3ccc(OC)cc3)C2c2ccccc2)cc1 (configuration not stated) | 226 to 229 °C

Row | SMILES | melting point
23 | Cc1cc(Cc2cc(C(C)(C)C)cc(-n3nc4ccccc4n3)c2O)c(O)c(C(C)(C)C)c1 | 175 °C
24 | CCC(=NO)C(C)(C)NCC(C)(C)CN | 118 to 120 °C
25 | O=C(O)CNC(=O)c1c(O)n(C2CCCCC2)c(=O)n(C2CCCC2)c1=O | 222 to 224 °C
26 | CCCCNC(=O)NS(=O)(=O)c1ccccc1S(=O)(=O)N(C)C(F)(F)C(F)F | 146 to 152 °C
27 | Cc1nnc2c3cccc(Br)c3ccn12 | 203 to 204 °C
28 | NCc1c(N)cccc1Oc1ccccc1 | 69 to 71 °C
29 | N#Cc1c(OCc2ccc(F)cc2F)ccn(Cc2cccc(F)c2)c1=O | 187 to 190 °C
30 | COC(=O)Nc1nc(OC)nc(OC)n1 | 118 to 122 °C
31 | CN(C)CC1CCN(c2nc(N3CCOCC3)c3ncnc(N(C)Cc4cccc5ccccc45)c3n2)CC1 | 158 °C
32 | Cc1ccccc1-c1c(NC(=O)Nc2c(C)cccc2C)c(=O)oc2c(F)cc(F)cc12 | 221 to 222 °C
33 | NC(=O)c1c(C(F)(F)F)oc2cc(O)ccc2c1=O | > 310 °C
34 | CCCCc1cc(Br)c(N=Nc2ccc(N(CCO)CCO)cc2NC(C)=O)c(Br)c1 | 157 to 159 °C
35 | COc1cc(NC(=O)CN2CCN(c3ncccc3C#N)CC2)cc(OC)c1OC | 123 to 124 °C
36 | COc1ccc(C2(COc3cccc4cc(NS(=O)(=O)C(F)(F)F)ccc34)N=CNO2)cc1 (configuration not stated) | 146 to 148 °C
37 | COc1cc(-c2csc(Br)c2Br)cc2oc(=O)c(C)c(C)c12 | 194 to 196 °C
38 | ClCc1nc2nc(Cl)c(Cl)nc2s1 | 126 to 128 °C
39 | COc1ccc(C=CC(=O)CC(=O)C=Cc2ccc(OC)cc2)cc1 | 154 to 155 °C
40 | CCc1ccc2c(c1)OC1(O)c3ccccc3C(=O)C21O (configuration not stated) | 168 to 169 °C
41 | Oc1ccc2c(c1)CC(NCC(O)c1ccccc1)CC2 (configuration not stated) | 157 to 159 °C
42 | C=CCc1cc2c(c(CC=C)c1OC1CCCCO1)CCC(=O)N2CCC#N (configuration not stated) | 93 to 94 °C
43 | O=C(CCC(=O)c1ccc(F)cc1)Nc1ccc(-n2nc(C(F)(F)F)cc2C(F)(F)F)cc1 | 156 to 158 °C
44 | CCN1CCN(c2nccc(Oc3ccc(NC(=O)c4cc(F)cc(N5CCOCC5)c4)c4ccccc34)n2)CC1 | 185 to 186 °C

Row | SMILES | melting point
45 | CN(C)CCNc1c2c(nc3ccccc13)CCCC2O (configuration not stated) | 135 to 138 °C
46 | Oc1ccc(CCCC2OCCO2)cc1 | 67 to 68 °C
47 | CCCCCCCCCCCCCCCCCCc1ccc(S(=O)(=O)Nc2nncs2)cc1 | 116 to 117 °C
48 | COc1cc2ncc(C#N)c(Nc3ccc4[nH]c(C)nc4c3)c2cc1OC | 207 °C
49 | CCOC(=O)C(C)c1ccc2oc(Nc3ccc(Cl)cc3)nc2c1 (configuration not stated) | 135 to 137 °C
50 | O=Cc1c[nH]c2c1ccc1c3cc(-c4ccc(OC(F)(F)F)cc4)ccc3[nH]c12 | > 250 °C
51 | C#CCN1CCCc2ccc(OC(=O)Nc3ccccc3OC)cc21 | 83 °C
52 | CC(C)c1ccc(-c2nnc(-c3ccc(C(=O)O)cc3)s2)cc1 | > 300 °C
53 | Cc1[nH]c(=S)n(Nc2cccc(F)c2)c1-c1ccccc1 | 226 °C
54 | CCCCCC(=O)CCC1CCC(CCCCCCCC(=O)O)O1 (configuration not stated) | 26 to 28 °C
55 | CC(O)c1c[nH]c(-c2ccccc2)n1 (configuration not stated) | 197 to 198 °C
56 | CC1(C)COC(Cc2ccc3c(c2)C(=O)c2ccccc2CO3)=N1 | 101 to 104 °C
57 | c1ccnc2ccccc2c2ccccc2cc1 | 165 to 167 °C
58 | Cc1cccc(C)c1NC(=O)CSc1cc(C(C)(C)C)c(O)c(C(C)(C)C)c1 | 138 °C
59 | CCOC(=O)Cc1cccc(-c2nc(COc3ccc(COc4nn(-c5ccccc5)cc4C=O)cc3OC)c(C)o2)c1 | 145 to 146 °C
60 | O=C(NCCCCCCCCc1ccccc1)c1cc(-c2cccc(C(F)(F)F)c2)c(OCCO)c(-c2cccc(C(F)(F)F)c2)c1 | 143 to 145 °C
61 | CCOC(=O)c1ccc(-c2c(F)ccc([N+](=O)[O-])c2F)cc1 | 85 to 86.7 °C
62 | COC(=O)CCn1cnc2c(Cl)ncnc21 | 93.5 °C
63 | CCOC(=S)c1cnc(C)nc1N | 130 to 131 °C
64 | C=Cc1cc(Br)c(Br)cc1Br | 64 °C
65 | Cc1coc(C)c1-c1nc2ccc(C(=O)c3ccccc3)cc2[nH]1 | 203 to 208 °C
66 | N#Cc1cc2ccccc2cc1O | 188 to 189 °C

Now from value to molecule:

Row | melting point | SMILES
67 | 178 to 184 °C | CS(=O)(=O)c1cccc(C(=O)Nc2ccc(-n3nc(C(F)(F)F)cc3C3CC3)cc2)c1
68 | 90 to 92 °C | CCN(CC)CCn1c(=O)c2cnc3c(cnn3CC)c2n2nc(C)cc12
69 | 173 °C | COC(=O)[C@@H]1C[C@H](C(=O)O)Nc2cc(C)cc(C)c21 (relative stereo)
70 | 228 °C | COc1cc2cnc(C(=O)O)cc2cc1OC
71 | 119 °C | C=C1CC(C(O)=Nc2cc(Cl)cc(Cl)c2)C1C(=O)O (configuration not stated)
72 | 128 to 130 °C | COC(=O)c1cc2c3c(cc(OCc4ccccc4)c2[nH]1)N(C(=O)OC(C)(C)C)C[C@H]3COC(C)=O
73 | 120 °C | O=C(Cc1ccc(I)cc1)NC[C@H]1CCCN1
74 | 132 to 134 °C | CCn1cc(C(=O)OC)c(=O)cc1-c1ccc(N(C)C)c(C)c1
75 | 166 °C | Cc1cn(-c2ccc(Br)cc2C#N)cn1
76 | 160 to 163 °C | Cc1cc(C#N)c2c(c1C)C(=O)CC2
77 | 100 to 102 °C | COC(=O)[C@H](c1ccccc1Cl)N1CCc2sc(OC(=O)c3ccc([N+](=O)[O-])cc3)cc2C1
78 | 63 to 64 °C | OC(=S)CCc1ccc(Cl)c(Cl)c1
79 | 168 to 170 °C | O=C1OCCN1CCN1CCN(C2Cc3ccc(Cl)cc3Sc3cc(F)ccc32)CC1 (configuration not stated)
80 | 242 to 244 °C | Cc1cccc(N2CCOC2=O)c1COc1cccn2c(C=O)c(C)nc12
81 | 96 to 98 °C | CCCN1C(=O)CN(C)C1S(=O)(=O)N=NC(=O)Nc1nc(OC)cc(OC)n1 (configuration not stated)
82 | 77 to 78 °C | COc1ccccc1OCC(O)CN1CCC(=O)CC1 (configuration not stated)
83 | 180 to 181 °C | NC(=O)CCn1ccn(C2CCc3ccccc3C2)c1=S (configuration not stated)
84 | 47 to 48 °C | CC(=O)OCc1cc(C(C)=O)ccc1OC(C)=O

Row | melting point | SMILES
85 | 298 to 300 °C | CN(C)C=Cc1[nH]c(=O)ccc1C#N
86 | 129 to 130 °C | CC1CN(C)N(c2cc(Cl)cc(Cl)c2)C(=O)N1 (configuration not stated)
87 | 294 to 295 °C | O=C(O)c1ccc2c(c1)Sc1ccc(Cl)cc1C2
88 | 197 to 198 °C | CC(C)NC(=S)Nc1cccc(NC(=O)Nc2ccc(Cl)cc2)c1
89 | 156 to 157 °C | CCCCCCN1C(=O)C(=CC(=O)O)SC1=Nc1ccc(Cl)c(Cl)c1
90 | 245 to 246 °C | CN(c1cc(OC(F)(F)F)cc2cc(C(=O)O)[nH]c12)S(=O)(=O)c1cccs1
91 | 157 to 159 °C | Cc1cc([C@@H]2C[C@H]2c2nc3ccccc3n2C)cc(-n2nc(C)nc2C)n1 (relative stereo)
92 | 108 °C | COc1c(C)cc(C(=O)CCC(=O)O)cc1C
93 | 85 °C | COC(=O)c1cc(C=O)cc([N+](=O)[O-])c1
94 | > 305 °C | Cn1c(CNC(=O)c2cc3ccccc3[nH]2)c(-c2ccccc2)c2cc(Cl)ccc2c1=O
95 | 105 to 107 °C | Cc1ccccc1C1CC(=O)c2c(C(F)(F)F)coc2C1 (configuration not stated)
96 | 150 to 152 °C | COC(=O)N[C@@H](C)CNc1nccc(-c2cn(C(C)C)nc2-c2cc(Cl)cc(NS(C)(=O)=O)c2F)n1
97 | 260 °C | COC(=O)c1cc(=O)n2nc(COC(C)=O)nc2[nH]1
98 | 208 to 209 °C | CCOC(=O)NC(=O)Nc1ccc(Cl)cc1C(=O)c1ccccc1F
99 | 134 to 135 °C | COc1cccc(CC(=O)O)c1OCCCn1cc(C(=O)NCc2ccc(Cl)cc2Cl)c(OC(C)C)n1
100 | 113 to 115 °C | COC(=O)c1c(Cl)cc(Cl)c2ccc(Cl)cc12
101 | 254 to 255 °C | N#Cc1[nH]c(-c2c(Cl)cc(C(F)(F)F)cc2Cl)nc1C(N)=O
102 | 92 to 93 °C | COc1cccc(C(=O)C=C2CCCN2C)c1

— a melting point compilation (Tetko et al.; mined from patent text by program, amines drawn as free bases though some values may be those of a salt)
